Molecules are shown by their SMILES. Counter-ions that a name gives are not always drawn.

The target of the test is HIV-1 protease (Human immunodeficiency virus type 1 group M subtype B, UniProt P04585). The experiment in a line: biochemical. Conditions: for inhibition at 1 µM: read-out: HIV-1 Protease % Inhib, dose 1.000 uM; for inhibition at 10 µM: read-out: HIV-1 Protease % Inhib, dose 10.000 uM; for inhibition at 100 µM: read-out: HIV-1 Protease % Inhib, dose 100.000 uM; for IC50: HIV-1 Protease IC50; for HIV-1 Protease % Inhib: dose 100.000 uM. As for the experimental part: The HIV protease screening assay is based on fluorescently labeled substrate which can be resolved from nonlabeled cleavage product using special beads coated with streptavidin. The substrate is biotinylated at the amino terminal arginine and fluorescently labeled with fluorescein isothiocynate (FITC) at the carboxyl terminal lysine. This assay has been employed to detect novel, nonpeptidic inhibitors of HIV-1 protease. Substrate (20 μl of 0.2 μM), sample (10 μl of desired concentration), and enzyme (10 μl of 0.1 μM) are added to a 96 well pandex plate. The assay is run in 0.1M sodium acetate buffer at pH 5.5 in the presence of 1.0M sodium chloride and 0.05% NP-40 with incubated in the dark for one hour at room temperature. Strepavidin coated polystyrene beads {40 μl of 0.1% (w/v)} are added and the plate is incubated in the dark for an additional half hour. The labeled cleavage product is separated from the unreacted substrate via filtration and is read on the Idexx screen machine. The data are analyzed by appropriate computer algorithms to ascertain percent inhibition values.

In the case of `CCC(C)C(NC(=O)c1cccc(C(C)c2c(O)c3ccccc3oc2=O)c1)C(=O)NCc1ccccn1` (stereo not shown) [Example 30, Benzamide, 3-[1-(4-hydroxy-2-oxo-2H-1-benzopyran-3-yl)ethyl]-N-[2-methyl-1-[[(2-pyridinylmethyl)amino]carbonyl]butyl]-], the inhibition at 1 µM was < 10%, the inhibition at 10 µM was 65.3% and the inhibition at 100 µM was 109%.
Consider `CCCCNC(=O)c1cccc(C(C)c2c(O)c3ccccc3oc2=O)c1` (stereo not shown) [Example 31, Coumarin, 3-[1-[3-[(butylamino)carbonyl]phenyl]ethyl]-4-hydroxy-], for which the inhibition at 1 µM was < 10%, the inhibition at 10 µM is < 10% and the inhibition at 100 µM was determined as 53.7%.
As for `CC(c1cccc(C(=O)NCC(=O)N2CCOCC2)c1)c1c(O)c2ccccc2oc1=O` (stereo not shown) [Example 32, Coumarin, 4-hydroxy-3-[1-[3-[[[[(4-morpholino)carbonyl]methyl]amino]carbonyl]phenyl]ethyl]-], the inhibition at 1 µM was < 10%, the inhibition at 10 µM is < 10% and the inhibition at 100 µM amounted to 46.5%.
Regarding `CC(c1cccc(C(=O)NCC(=O)NCc2nc3ccccc3[nH]2)c1)c1c(O)c2ccccc2oc1=O` (stereo not shown) [Example 33, Coumarin, 3-[1-[3-[[[[[[(2-benzimidazolyl)methyl]amino]carbonyl]methyl]amino]carbonyl]phenyl]ethyl]4-hydroxy-], the inhibition at 1 µM is < 10%, the inhibition at 10 µM was determined as 11.2% and the inhibition at 100 µM came out at 77.4%.
In the case of `O=c1oc2ccccc2c(O)c1C1CCCc2ccccc21` (stereo not shown) [Example 34, 4-hydroxy-3-[1-(1,2,3,4-tetrahydro)naphthyl]-coumarin], the half-maximal inhibitory concentration (IC50) (usually the point on the concentration scale where inhibition reaches its midpoint) worked out at 3.6 µM, the inhibition at 1 µM was < 10%, the inhibition at 10 µM amounted to 50.3% and the inhibition at 100 µM worked out at 91.1%.
The corresponding values for `O=c1oc2ccccc2c(O)c1C1CCc2ccccc21` (stereo not shown) [Example 35, 4-hydroxy-3-[1-indanyl]-coumarin] are 6.8 µM, < 10%, 19.6% and 92.6%.
Consider `CCC(c1ccc(F)cc1)c1c(O)c2ccccc2oc1=O` (stereo not drawn) [Example 36, Coumarin, 3-(α-ethyl-p-fluorobenzyl)4-hydroxy-], for which the inhibition at 1 µM was < 10%, the inhibition at 10 µM was determined as 16.9% and the inhibition at 100 µM is 81.6%.
In the case of `CCCC(c1ccccc1)c1c(O)c2ccc(OC)cc2oc1=O` (stereo not drawn) [Example 37, Coumarin, 7-methoxy-3-(α-propylbenzyl)4-hydroxy-], it took 7 µM to reach half-maximal inhibition (IC50), the inhibition at 1 µM is < 10%, the inhibition at 10 µM came to 59.5% and the inhibition at 100 µM was 103%.
The like results for `COc1ccc2c(O)c(C(c3ccccc3)C3CC3)c(=O)oc2c1` (stereo not shown) [Example 38, 3-cyclopropylphenylmethyl-4-hydroxy-7-methoxy coumarin] were, in that order, 2.8 µM, 18.6%, 83.2% and 93.4%.
The corresponding values for `CC(C)(c1ccccc1)c1c(O)c2ccccc2oc1=O` [Example 39, 3-(α,α-dimethylbenzyl)4-hydroxy coumarin] are 5 µM, 13.8%, 69.6% and 82%.
For the molecule `CCC(c1cccc(N)c1)c1c(O)c2ccccc2oc1=O` (stereo not shown) [Example 40, Coumarin, 3-[1-(3-aminophenyl)propyl]4-hydroxy-, monohydrochloride-], the inhibition at 1 µM was < 10%, the inhibition at 10 µM was < 10% and the inhibition at 100 µM stood at 51.3%.
As for `CCC(c1cccc(NC(=O)COc2cccc3ccccc23)c1)c1c(O)c2ccccc2oc1=O` (stereo not shown) [Example 41, Coumarin, 4-hydroxy-3-[1-[3-[[(1-naphthoxymethyl)carbonyl]amino]phenyl]propyl]-], the inhibition at 1 µM is < 10%, the inhibition at 10 µM is 32.6% and the inhibition at 100 µM was found to be 80.6%.
With `CCC(c1cccc(NC(=O)C(NC(=O)OC(C)(C)C)C(C)C)c1)c1c(O)c2ccccc2oc1=O` (stereo not shown) [Example 42, Carbamic acid, [1-[[[3-[1-(4-hydroxy-2-oxo-2H-1-benzopyran-3-yl)propyl]phenyl]amino]carbonyl]-2-methylpropyl]-, 1,1-dimethylethyl ester], the half-maximal inhibitory concentration (IC50) was 9.9 µM, the “HIV-1 Protease % Inhib” value is 102.8%, the inhibition at 1 µM is 11.5% and the inhibition at 10 µM turned out to be 75.2%. The inhibition at 100 µM came to 112%.
Turning to `CCC(c1cccc(NC(=O)CNC(=O)OC(C)(C)C)c1)c1c(O)c2ccccc2oc1=O` (stereo not shown) [Example 43, Coumarin, 4-hydroxy-3-[1-[3-[[[[(1,1-dimethylethoxycarbonyl)amino]methyl]carbonyl]amino]phenyl]propyl]-], the IC50 stood at 2.1 µM, the inhibition at 1 µM came out at 28.4%, the inhibition at 10 µM turned out to be 103% and the inhibition at 100 µM stood at 122%.
For the molecule `CCCCC(=O)Nc1cccc(C(CC)c2c(O)c3ccccc3oc2=O)c1` (stereo not shown) [Example 44, Coumarin, 4-hydroxy-3-[1-[3-[(1-oxopentyl)amino]phenyl]propyl]-], the inhibition at 1 µM is < 10%, the inhibition at 10 µM is < 10% and the inhibition at 100 µM amounted to 55.6%.
`CCC(c1cccc(NC(=O)c2ccccn2)c1)c1c(O)c2ccccc2oc1=O` (stereo not shown) [Example 45, Coumarin, 4-hydroxy-3-[1-[3-[[(2-pyridinyl)carbonyl]amino]phenyl]propyl]-]: the inhibition at 1 µM is < 10%, the inhibition at 10 µM was 28.5% and the inhibition at 100 µM stood at 90.9%.
For `CCC(c1cccc(NC(=O)CN)c1)c1c(O)c2ccccc2oc1=O` (stereo not shown) [Example 46, Coumarin, 3-[1-[3-[[(aminomethyl)carbonyl]amino]phenyl]propyl]4-hydroxy-, trifluoroacetate (salt)], the 50% inhibitory concentration (IC50) was determined as 4.2 µM, the “HIV-1 Protease % Inhib” value was found to be 107%, the inhibition at 1 µM worked out at 22.1% and the inhibition at 10 µM came out at 96.3%. Moreover, the inhibition at 100 µM is 116%.
With `CCC(c1cccc(NC(=O)CC(C)(C)NC(=O)OC(C)(C)C)c1)c1c(O)c2ccccc2oc1=O` (stereo not shown) [Example 47, Coumarin, 4-hydroxy-3-[1-[3-[[1-oxo-3-methyl-3-[(1,1-dimethylethoxycarbonyl)amino]butyl]amino]phenyl]propyl]-], the inhibition at 1 µM is < 10%, the inhibition at 10 µM was < 10% and the inhibition at 100 µM was 53%.
Consider `CCC(c1cccc(NC(=O)CC(C)(C)N)c1)c1c(O)c2ccccc2oc1=O` (stereo not shown) [Example 48, Coumarin, 3-[1-[3-[(3-amino-3-methyl-1-oxobutyl)amino]phenyl]propyl]-4-hydroxy-, trifluoroacetate (salt)], for which the inhibition at 1 µM is < 10%, the inhibition at 10 µM was < 10% and the inhibition at 100 µM is 43.3%.
Regarding `CCC(CC(=O)Nc1cccc(C(CC)c2c(O)c3ccccc3oc2=O)c1)c1ccccc1` (stereo not shown) [Example 49, Coumarin, 4-hydroxy-3-[1-[3-[(1-oxo-3-phenylpentyl)amino]phenyl]propyl]-], the inhibition at 1 µM is < 10%, the inhibition at 10 µM came out at 21.9% and the inhibition at 100 µM was determined as 60.3%.

The record behind these values is US5686486A, “4-hydroxy-benzopyran-2-ones and 4-hydroxy-cycloalkyl[b]pyran-2-ones useful to treat retroviral infections” (priority 1995, dated 1997).
